Structures can show the parent of a compound that is named as a salt. Where two headings read alike, the source gives them in different places. Marks after values point to notes of the source that are not given here.
What was measured:
FGFR4 = FGFR4 (Homo sapiens, UniProt P22455); assay: FGFR4 kinase activity inhibition experiment (Caliper mobility shift assay); type: biochemical
Description: FGFR4 protein kinase activity was determined using Caliper mobility shift assay. The compound was dissolved in DMSO and then diluted with kinase buffer, 5 μL of 5-fold final reaction concentration of compound (10% DMSO) was added to a 384-well plate. […] After incubation at 28° C. for 30-60 minutes, 25 μL of stop solution was added to stop the reaction. Conversion data was read on Caliper EZ Reader II (Caliper Life Sciences). The conversion rate was converted to inhibition rate (% inhibition=(max−sample conversion rate)/(max−min)*100), wherein max refers to the conversion rate of the DMSO control, and min refers to the conversion rate of enzyme-free control. Curve was plotted with compound concentration and inhibition rate on the horizontal and vertical coordinates respectively, and the curve was fitted and IC50 was calculated using XLFit excel add-in version 4.3.1 software.

[1] = system: Hep3B (human hepatocarcinoma cell line) xenograft; details: for growth of tumor (tumor weight) versus vehicle, in words / growth of xenograft tumor (tumor volume) versus vehicle, in words: at the test dose; for TV (mm^3) d14: d14, Mean ± SD; for TV (mm^3) d14 / Tumor Weight: n = 7; for TV (mm^3) d14 / T/C d14 (%) (relative tumor volume proliferation rate) / TGI d14 (%) (tumor growth inhibition rate) / Tumor Weight / Tumor Weight Inhibition Rate (%): palbociclib 50 mg/kg qd; for Tumor Weight / Tumor Weight Inhibition Rate (%): end of test; for Tumor Weight: Mean ± SD
Description: 42 NU/NU mouse, female, 42-48 days old, weighing 22-26 g.
Hep3B cells were resuscitated and passaged in vitro to the desired number of cells. The cells were counted under a microscope, and diluted with serum-free medium and matrix gel (1:1) to adjust the number of tumor cells to approximately 5×10^7 cells/mL. The cell suspension was placed in an ice bath.
Hep3B cell suspension was withdrawn with a sterile syringe for inoculation into subcutaneous tissue in the axilla of the forelimb of NU/NU mice, with a volume of 0.1 mL/per mice, containing approximately 5.0×10^6 tumor cells, to prepare NU/NU mice Hep3B xenogratf model.
In the vehicle group, the solvents were administered at the same frequency and volume for 14 consecutive days.
4.3 Observation Criteria and Evaluation Criteria • (1) General state observation: all animals were observed once a day during the test period and the abnormalities in various parts of the body and the behavior change situations were recorded. • (2) Body weight: all animals were weighed once before testing and the appropriate body weight of animals were selected for testing. Animals were weighed once a day at a fixed time after initiation of administration for weight monitoring, and body weight statistics were consistent with tumor volume statistics. • (3) Death and moribund: time of death was recorded for dead animals, moribund animals were observed more frequently, and time of death was determined. • (4) Tumor Evaluation
After animal grouping, tumor length and short diameters were measured twice per week. • (1) Tumor volume: V=½×a×b^2 • (2) Relative tumor volume:
[formula] • (3) Relative tumor volume proliferation rate:
[formula] • (4) Tumor growth inhibition rate:
[formula] • Note: V: Tumor volume • a: tumor length; b: tumor width; RTV: relative tumor volume; TVnd: tumor volume on day n; TV0d: tumor volume on day 0; RTVxnd: mean relative tumor volume on day n; TVXn: mean tumor volume on day n in the administrated group; TVX0: mean tumor volume on day 0 in the administrated group; TVMn: mean tumor volume on day n in the solvent (model) group; TVM0: mean tumor volume on day 0 in the solvent (model) group. • (5) Tumor weight
At the end of the test, the animals were sacrificed by cervical dislocation, and a tumor was stripped and weighed.
Data were processed using SPSS 19.0 statistical software. Repeated Measure process analyzed tumor volume changes between groups with multiple measurements over time. Multivariate process compared differences in tumor volume between groups at each measurement. Difference in tumor weight between groups was analyzed by LSD method of One-way ANOVA.

[2] = system: Hep3B (human hepatocarcinoma cell line) xenograft; details: for Change Rate in Weight (%) / Number of Animals (Survived/Total): BALB/c Nude mice, gavage qd 16 days, palbociclib 50 mg/kg; for Change Rate in Weight (%) / Number of Animals (Survived/Total) / TV(mm3) d16 / T/C d16 (%) (relative tumor volume proliferation rate) / TGI d16 (%) (tumor growth inhibition rate) / Tumor Weight / Tumor Weight Inhibition Rate (%): compound of formula (B) 5 mg/kg, sorafenib tosylate 8 mg/kg; for growth of xenograft tumor (tumor volume) versus vehicle, in words / tumor growth (tumor weight) versus vehicle, in words: at the test dose; for TV(mm3) d16: d16, Mean ± SD; for TV(mm3) d16 / Tumor Weight: n = 6; for TV(mm3) d16 / T/C d16 (%) (relative tumor volume proliferation rate) / TGI d16 (%) (tumor growth inhibition rate) / Tumor Weight / Tumor Weight Inhibition Rate (%): palbociclib 50 mg/kg qd; for Tumor Weight / Tumor Weight Inhibition Rate (%): end of test; for Tumor Weight: Mean ± SD
Description: 36 BALB/c Nude mice, female, 18-20 g in body weight.
Compounds of formula (B), sorafenib tosylate, palbociclib.
Sorafenib tosylate/palbociclib: a solution of castor oil, anhydrous ethanol and ultrapure water in a volume ratio of 1:1:6.
In the solvent group, the solvents were administered at the same frequency and volume for 16 consecutive days.
4.3 Observation Criteria and Evaluation Criteria: Same as Example 2

Huh-7 cells = assay: Huh-7 tumor cell proliferation inhibition assay (CellTiter Glo); type: cell-based; details: Homo sapiens, 72 or 168 hours
Description: Huh-7 cell suspension was adjusted to 5×10^4/ml or 2×10^4/ml with DMEM+2 mM Glutamine+10% FBS medium. 100 μL of cell suspension was added per well to a 96-well cell culture plate, to give a final cell concentration of 5000 cells/well (72 hours) or 2000 cells/well (168 hours). The compound to be tested (compound of formula (B)) was dissolved in DMSO to give 10 mmol of stock solution. 200× final concentration of compound was prepared with stock solution and DMSO, and 3× serial gradient dilutions were prepared, then diluted 20-fold each with medium. Finally, 10 μL of the corresponding 10-fold solution was added per well for each cell, wherein each drug concentration was added in one well. […] After 72 or 168 hours of drug treatment, according to CTG instructions (CellTiter Glo), 100 μL of CTG solution that had been previously thawed and equilibrated to room temperature was added per well, mixed for 2 minutes using a microplate shaker, placed at room temperature for 10 minutes, and then chemiluminescent signal value was measured with EnSpire plate reader. Cell survival was calculated using formula: (Vsample−Vblank)/(Vvehicle control−Vblank)×100%, wherein Vsample is the reading of the drug treatment group, Vvehicle control is the average of the solvent control group, and Vblank is the average of the blank control wells. […]

[3] = 638 patients, cited from earlier work
[4] = patients taking sorafenib, N=2276; cited from earlier work
[5] = NU/NU mice, gavage qd 14 days, compound of formula (B) 5 mg/kg, lenvatinib mesylate 8 mg/kg, palbociclib 50 mg/kg
[6] = compound of formula (B) 5 mg/kg, lenvatinib mesylate 8 mg/kg
[7] = listed as compound of formula (B)
[8] = most common drug-related adverse events

Sequence of FGFR4 (P22455 22-802): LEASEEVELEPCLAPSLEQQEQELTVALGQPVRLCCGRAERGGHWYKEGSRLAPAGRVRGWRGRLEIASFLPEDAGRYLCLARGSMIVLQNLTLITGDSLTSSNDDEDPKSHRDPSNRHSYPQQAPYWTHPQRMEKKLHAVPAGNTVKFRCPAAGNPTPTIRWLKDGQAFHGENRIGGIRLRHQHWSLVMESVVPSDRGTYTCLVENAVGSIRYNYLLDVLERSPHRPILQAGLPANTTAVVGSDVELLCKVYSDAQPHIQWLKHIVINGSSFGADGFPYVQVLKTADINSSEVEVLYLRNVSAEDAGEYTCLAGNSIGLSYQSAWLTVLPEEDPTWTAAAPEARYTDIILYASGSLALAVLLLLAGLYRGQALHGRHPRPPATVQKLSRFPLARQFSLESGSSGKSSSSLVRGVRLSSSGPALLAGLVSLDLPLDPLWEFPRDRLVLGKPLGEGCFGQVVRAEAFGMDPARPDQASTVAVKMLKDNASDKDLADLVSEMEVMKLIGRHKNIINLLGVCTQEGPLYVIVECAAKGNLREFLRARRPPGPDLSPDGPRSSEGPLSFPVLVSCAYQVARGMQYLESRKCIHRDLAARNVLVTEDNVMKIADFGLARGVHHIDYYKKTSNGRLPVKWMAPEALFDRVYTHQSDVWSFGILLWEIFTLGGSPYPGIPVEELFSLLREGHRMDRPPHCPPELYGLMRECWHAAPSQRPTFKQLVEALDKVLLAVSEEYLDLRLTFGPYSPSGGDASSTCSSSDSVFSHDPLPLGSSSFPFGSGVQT

Row | Change Rate in Weight (%) [2] [%] | SMILES | Number of Animals (Survived/Total) [1, 5] | growth of tumor (tumor weight) versus vehicle, in words [1] | growth of xenograft tumor (tumor volume) versus vehicle, in words [1] | TV (mm^3) d14 [1, 6] | T/C d14 (%) (relative tumor volume proliferation rate) [1, 6] | TGI d14 (%) (tumor growth inhibition rate) [1, 6] | Tumor Weight [1, 6] [g] | Tumor Weight Inhibition Rate (%) [1, 6] [%] | Number of Animals (Survived/Total) [2] | growth of xenograft tumor (tumor volume) versus vehicle, in words [2] | tumor growth (tumor weight) versus vehicle, in words [2] | TV(mm3) d16 [2] [mm3] | T/C d16 (%) (relative tumor volume proliferation rate) [2] | TGI d16 (%) (tumor growth inhibition rate) [2] | Tumor Weight [2] [g] | Tumor Weight Inhibition Rate (%) [2] [%] | also measured
1 | −12.0 | N#Cc1cnc(NC(=O)N2CCCc3cc(CN4CCN5CCC[C@H]5C4=O)c(C=O)nc32)cc1NC1CC1 [Compound of formula (B)] | 7/7 | significantly inhibited the growth of the xenograft tumor | significantly inhibited the growth of the xenograft tumor | 607.8 ± 277.1** mm^3 | 55.8 | 49.1 | 0.7481 ± 0.3692 | 43.8 | 6/6 | can significantly inhibit the growth of the xenograft tumor | can significantly inhibit tumor growth | 608.1 ± 293.4 | 75.1 | 44.5 | 0.59 ± 0.34 | 46.4 | IC50 (FGFR4): < 5 nM; Change Rate in Weight (%) [1, 5]: −4.5%; T/C d16 (%) (relative tumor volume proliferation rate) [2, 7]: 84.5%; TGI d16 (%) (tumor growth inhibition rate) [2, 7]: 30.9%; tumor volume growth compared to model (vehicle) group at corresponding time points, in words ([2]; days as stated (d13-d16 alone; d3-d6, d10-d16 with sorafenib tosylate; d6-d16 with palbociclib)): can significantly inhibit tumor volume growth; Tumor Weight Inhibition Rate (%) [2, 7]: 27.8%; IC50 (Huh-7 cells): < 10 nM
2 |  | COc1cc2nccc(Oc3ccc(NC(=O)NC4CC4)c(Cl)c3)c2cc1C(N)=O [Lenvatinib Mesylate, 4-[3-chloro-4-(N′-cyclopropylureido)phenoxy]-7-methoxyquinoline-6-carboxamide mesylate] | 7/7 | significantly inhibited the growth of the xenograft tumor | significantly inhibited the growth of the xenograft tumor | 533.1 ± 212.6** mm^3 |  | 57.4 | 0.5600 ± 0.1923 | 58.0 |  |  |  |  |  |  |  |  | 
3 | −24.7 | CC(=O)c1c(C)c2cnc(Nc3ccc(N4CCNCC4)cn3)nc2n(C2CCCC2)c1=O [Palbociclib, 6-acetyl-8-cyclopentyl-5-methyl-2-{[5-(piperazin-1-yl)pyridin-2-yl]amino}pyrido[2,3-d]pyrimidin-7 (8H)-one] | 7/7 | did not inhibit the growth of tumor | failed to inhibit the growth of xenograft tumor | 948.8 ± 361.2 mm^3 | 95.8 | 11.0 | 1.3047 ± 0.4823 | 2.1 | 6/6 | failed to inhibit the growth of xenograft tumor | failed to inhibit tumor growth | 711.6 ± 313.8 | 91.3 | 31.4 | 0.89 ± 0.30 | 19.1 | T/C d16 (%) (relative tumor volume proliferation rate) ([2]; listed as palbociclib): 75.1%; TGI d16 (%) (tumor growth inhibition rate) ([2]; listed as palbociclib): 44.5%; Tumor Weight Inhibition Rate (%) ([2]; listed as palbociclib): 46.4%
4 | −17.5 | CNC(=O)c1cc(Oc2ccc(NC(=O)Nc3ccc(Cl)c(C(F)(F)F)c3)cc2)ccn1.Cc1ccc(S(=O)(=O)O)cc1 [Sorafenib Tosylate, 4-{4-[3-(4-chloro-3-trifluoromethyl-phenyl)-acylurea]-phenoxy}-pyridine-2-carboxylic acid methylamide-4-toluenesulfonate] |  |  |  |  |  |  |  |  |  | failed to inhibit the growth of xenograft tumor | failed to inhibit tumor growth | 717.2 ± 222.7 | 84.5 | 30.9 | 0.79 ± 0.23 | 27.8 | T/C d16 (%) (relative tumor volume proliferation rate) ([2]; listed as sorafenib tosylate): 91.3%; TGI d16 (%) (tumor growth inhibition rate) ([2]; listed as sorafenib tosylate): 31.4%; Tumor Weight Inhibition Rate (%) ([2]; listed as sorafenib tosylate): 19.1%
5 |  | CNC(=O)c1cc(Oc2ccc(NC(=O)Nc3ccc(Cl)c(C(F)(F)F)c3)cc2)ccn1 [sorafenib] |  |  |  |  |  |  |  |  |  |  |  |  |  |  |  |  | incidence of CTC (version V2.0) Grade 3 drug-related adverse events [3]: 37%; incidence of CTC (version V2.0) Grade 4 drug-related adverse events [3]: 3%; diarrhea [3, 8]: 37%; hand and foot skin reactions [3, 8]: 35%; malaise [3, 8]: 33%; rash [3, 8]: 38%; incidence of congestive heart failure [4]: 1.9%

Reference: patent US20260199327A1, “PHARMACEUTICAL COMBINATION AND PHARMACEUTICAL COMPOSITION FOR TREATING CANCER” (CSPC ZHONGQI PHARMACEUTICAL TECHNOLOGY (SHIJIAZHUANG) CO., …, priority 2022, published 2026)
